The subject of the test is HIV-1 single-round infectious reporter virus. In words: microbe, parasite or virus in culture. Type of test: cell-based. The following applies: Human immunodeficiency virus 1, HeLa-CD4/CCR5, 72 h, read-out: EC50 Group from Table 1. As to the method:
• Virus production-Human embryonic Kidney cell line, 293, propagated in Dulbecco's Modified Eagle Medium (Life Technologies, Gaithersburg, Md.) containing 10% fetal Bovine serum (FBS, Sigma, St. Louis, Mo.). • Virus infection-Human epithelial cell line, HeLa, expressing the HIV-1 receptors CD4 and CCR5 was propagated in Dulbecco's Modified Eagle Medium (Life Technologies, Gaithersburg, Md.) containing 10% fetal Bovine serum (FBS, Sigma, St. Louis, Mo.) and supplemented with 0.2 mg/mL Geneticin (Life Technologies, Gaithersburg, Md.) and 0.4 mg/mL Zeocin (Invitrogen, Carlsbad, Calif.). Virus—Single-round infectious reporter virus was produced by co-transfecting human embryonic Kidney 293 cells with an HIV-1 envelope DNA expression vector and a proviral cDNA containing an envelope deletion mutation and the luciferase reporter gene inserted in place of HIV-1 nef sequences (Chen et al, Ref. 41). Transfections were performed using lipofectAMINE PLUS reagent as described by the manufacturer (Life Technologies, Gaithersburg, Md.). Experiment • 1. Compound was added to HeLa CD4 CCR5 cells plated in 96 well plates at a cell density of 1×10^3 cells per well in 100 μl Dulbecco's Modified Eagle Medium containing 10% fetal Bovine serum at a concentration of <20 μM. • 2. 100 μl of single-round infectious reporter virus in Dulbecco's Modified Eagle Medium was then added to the plated cells and compound at an approximate multiplicity of infection (MOI) of 0.01, resulting in a final volume of 200 μl per well and a final compound concentration of <10 μM. • 3. Samples were harvested 72 h after infection. • 4. Viral infection was monitored by measuring luciferase expression from viral DNA in the infected cells using a luciferase reporter gene assay kit (Roche Molecular Biochemicals, Indianapolis, Ind.). Infected cell supernatants were removed and 50 μl of Dulbecco's Modified Eagle Medium (without phenol red) and 50 μl of luciferase assay reagent reconstituted as described by the manufacturer (Roche Molecular Biochemicals, Indianapolis, Ind.) was added per well. Luciferase activity was then quantified by measuring luminescence using a Wallac microbeta scintillation counter. • 5. […] An EC50 provides a method for comparing the antiviral potency of the compounds of this invention. The effective concentration for fifty percent inhibition (EC50) was calculated with the Microsoft Excel Xlfit curve fitting software. For each compound, curves were generated from percent inhibition calculated at 10 different concentrations by using a four parameter logistic model (model 205). Table 1 is the key for the data in Table 2. Results
With `CNC(=O)c1ccc(F)c2c(C(=O)C(=O)NCC3CCN(C(=O)c4ccccc4)C3)c[nH]c12` (centres unmarked) [Example 8], the EC50 (in general, the concentration that produces a half-maximal response) is below 1 µM.
For the compound `O=C(NC[C@@H]1CCN(C(=O)C(=O)c2c[nH]c3c(-c4cc[nH]n4)ccc(F)c23)C1)c1ccccc1` [Example 12, N-(1-{2-[4-Fluoro-7-(1H-pyrazol-3-yl)-1H-indol-3-yl]-2-oxo-acetyl}-pyrrolidin-3-ylmethyl)-benzamide], the EC50 was below 1 µM.
For `CC(C)(C)OC(=O)NCC1CCN(C(=O)C(=O)c2c[nH]c3cccc(F)c23)C1` (centres unmarked) [Example 2, {1-[2-(4-Fluoro-1H-indol-3-yl)-2-oxo-acetyl]-pyrrolidin-3-ylmethyl}-carbamic acid tert-butyl ester] the value was above 5 µM.
Take `O=C(NCC1CCN(C(=O)c2ccccc2)C1)C(=O)c1c[nH]c2ncccc12` (centres unmarked) [Example 6, N-(1-Benzoyl-pyrrolidin-3-ylmethyl)-2-oxo-2-(1H-pyrrolo[2,3-b]pyridin-3-yl)-acetamide]: the EC50 was above 5 µM.
The value for `O=C(NCC1CCN(C(=O)c2ccccc2)C1)C(=O)c1c[nH]c2cccc(F)c12` (centres unmarked) [Example 1, N-(1-Benzoyl-pyrrolidin-3-ylmethyl)-2-(4-fluoro-1H-indol-3-yl)-2-oxo-acetamide] was below 1 µM; that for `O=Cc1ccc(F)c2c(C(=O)C(=O)NCC3CCN(C(=O)c4ccccc4)C3)c[nH]c12` (centres unmarked) [Example 5, N-(1-Benzoyl-pyrrolidin-3-ylmethyl)-2-(4-fluoro-7-formyl-1H-indol-3-yl)-2-oxo-acetamide] was 1 to 5 µM.
In the case of `O=C(NC[C@@H]1CCN(C(=O)C(=O)c2c[nH]c3c(Br)ccc(F)c23)C1)c1ccccc1` [Example 9, N-{1-[2-(7-Bromo-4-fluoro-1H-indol-3-yl)-2-oxo-acetyl]-pyrrolidin-3-ylmethyl}-benzamide], the EC50 was below 1 µM.
The value for `O=C(NCC1CCCN1C(=O)C(=O)c1c[nH]c2ccccc12)c1ccccc1` (centres unmarked) [Example 13] was below 1 µM; that for `O=C(NCC1CCN(C(=O)C(=O)c2cn(C(=O)c3ccccc3)c3cccc(F)c23)C1)c1ccccc1` (centres unmarked) [Example 4, N-{1-[2-(1-Benzoyl-4-fluoro-1H-indol-3-yl)-2-oxo-acetyl]-pyrrolidin-3-ylmethyl}-benzamide] was below 1 µM; that for `O=C(NC[C@H]1CCN(C(=O)C(=O)c2c[nH]c3c(Br)ccc(F)c23)C1)c1ccccc1` [Example 10, N-{1-[2-(7-Bromo-4-fluoro-1H-indol-3-yl)-2-oxo-acetyl]-pyrrolidin-3-ylmethyl}-benzamide] was below 1 µM.
In the case of `CN(C(=O)c1c[nH]c2ccccc12)C1CCN(C(=O)c2ccccc2)C1` (centres unmarked) [Example 14, 1H-Indole-3-carboxylic acid (1-benzoyl-pyrrolidin-3-yl)-methyl-amide], the EC50 was above 5 µM.
On to `O=C(NCC1CCN(C(=O)C(=O)c2c[nH]c3cccc(F)c23)C1)c1ccccc1` (centres unmarked) [Example 3, N-{1-[2-(4-Fluoro-1H-indol-3-yl)-2-oxo-acetyl]-pyrrolidin-3-ylmethyl}-benzamide], for which the EC50 is below 1 µM.
The value for `O=C(NCC1CCN(C(=O)c2ccccc2)C1)C(=O)c1c[nH]c2c(C(=O)O)ccc(F)c12` (centres unmarked) [Example 7] was 1 to 5 µM.
The value for `O=C(NC[C@H]1CCN(C(=O)C(=O)c2c[nH]c3c(-c4cc[nH]n4)ccc(F)c23)C1)c1ccccc1` [Example 11, N-(1-{2-[4-Fluoro-7-(1H-pyrazol-3-yl)-1H-indol-3-yl]-2-oxo-acetyl}-pyrrolidin-3-ylmethyl)-benzamide] was below 1 µM.

The values are drawn from patent US7714019B2 (priority 2002, dated 2010).
